Experimental data taken from patent US20220089592A1, “IMIDAZO[1,2-A]PYRIDINYL DERIVATIVES AS IRAK4 INHIBITORS” (priority 2019, published 2022).

Legend:
[1] = biological target: T1, IRAK4 (Homo sapiens, UniProt Q9NWZ3); experiment: 2-hour 1 mM ATP IRAK4 Biochemical assay (as above, but with 100 pM IRAK4 and 1 mM ATP); settings: IRAK4 MSD BIOCHEMICAL (1 mM ATP) IC50 (μM), 100 pM IRAK4, 2 hours
T1 sequence (Q9NWZ3 1-460): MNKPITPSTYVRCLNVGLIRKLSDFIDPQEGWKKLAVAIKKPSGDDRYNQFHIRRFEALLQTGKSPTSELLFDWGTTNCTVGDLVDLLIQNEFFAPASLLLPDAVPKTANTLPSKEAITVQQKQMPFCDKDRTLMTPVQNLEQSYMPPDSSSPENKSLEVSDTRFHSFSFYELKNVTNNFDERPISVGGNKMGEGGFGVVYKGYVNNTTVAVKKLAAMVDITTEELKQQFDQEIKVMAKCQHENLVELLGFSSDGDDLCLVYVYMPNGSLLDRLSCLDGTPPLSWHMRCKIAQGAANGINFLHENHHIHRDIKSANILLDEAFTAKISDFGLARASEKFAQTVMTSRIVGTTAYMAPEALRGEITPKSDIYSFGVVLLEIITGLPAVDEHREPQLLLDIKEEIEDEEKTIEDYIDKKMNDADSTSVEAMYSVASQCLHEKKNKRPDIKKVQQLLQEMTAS
In short: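 MSD electrochemiluminescence read-out: biotinylated peptide product bound to streptavidin plates, probed with anti-P-Thr rabbit antibody and Sulfo-Tag goat anti-rabbit. Kinase reaction used 1 mM ATP and 100 pM IRAK4 over 2 hours before EDTA quench.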

[2] = biological target: T1, IRAK4; experiment: 2-hour 10 μM ATP Biochemical Assay (MesoScale Detection format; IRAK4 phosphorylation of biotin labeled IRAK1 activation loop peptide); settings: IRAK4 MSD BIOCHEMICAL (10 μM ATP) IC50 (μM), 1 nM IRAK4, 2 hours
In short: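 Electrochemiluminescent MSD readout: after streptavidin capture, phosphothreonine on the biotin-labelled IRAK1 activation-loop peptide detected by rabbit antibody and Sulfo-Tag secondary. Phosphorylation ran 2 h with 10 μM ATP before EDTA quench.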

IC50 [1] [µM] | IC50 [2] [µM] | SMILES
0.009 | 0.002 | CC1(COc2cc3nc(C4CCOCC4)cn3cc2NC(=O)c2cccc(C(F)(F)F)n2)COC1 [Example 166, N-(7-((3-methyloxetan-3-yl)methoxy)-2-(tetrahydro-2H-pyran-4-yl)imidazo[1,2-a]pyridin-6-yl)-6-(trifluoromethyl)picolinamide]
0.015 | 0.007 | CCOc1cc2nc(C(O)C3CC3)cn2cc1NC(=O)c1cccc(C(F)(F)F)n1 (stereo not shown) [Example 168, N-(2-(cyclopropyl(hydroxy)methyl)-7-ethoxyimidazo[1,2-a]pyridin-6-yl)-6-(trifluoromethyl)picolinamide]
0.004 | 0.002 | N#CCOc1cc2nc(C3CCOCC3)cn2cc1NC(=O)c1cccc(C(F)F)n1 [Example 172, N-(7-(cyanomethoxy)-2-(tetrahydro-2H-pyran-4-yl)imidazo[1,2-a]pyridin-6-yl)-6-(difluoromethyl)picolinamide]
0.001 | 0.001 | CC(C#N)Oc1cc2nc(C3CCOCC3)cn2cc1NC(=O)c1cccc(C(F)F)n1 (stereo not shown) [Example 173, N-(7-(1-cyanoethoxy)-2-(tetrahydro-2H-pyran-4-yl)imidazo[1,2-a]pyridin-6-yl)-6-(difluoromethyl)picolinamide]
0.001 | 0.001 | CC1CCC(Oc2cc3nc(C4CCOCC4)cn3cc2NC(=O)c2cccc(C(F)F)n2)C1 (stereo not shown) [Example 178, 6-(difluoromethyl)-N-(7-((3-methylcyclopentyl)oxy)-2-(tetrahydro-2H-pyran-4-yl)imidazo[1,2-a]pyridin-6-yl)picolinamide]
0.001 | 0.001 | N#CC1CCC(Oc2cc3nc(C4CCOCC4)cn3cc2NC(=O)c2cccc(C(F)F)n2)C1 (stereo not shown) [Example 179, N-(7-((3-cyanocyclopentyl)oxy)-2-(tetrahydro-2H-pyran-4-yl)imidazo[1,2-a]pyridin-6-yl)-6-(difluoromethyl)picolinamide]
0.001 | 0.001 | CC1(C)CCC(Oc2cc3nc(C4CCOCC4)cn3cc2NC(=O)c2cccc(C(F)F)n2)C1 (stereo not shown) [Example 180, 6-(difluoromethyl)-N-(7-((3,3-dimethylcyclopentyl)oxy)-2-(tetrahydro-2H-pyran-4-yl)imidazo[1,2-a]pyridin-6-yl)picolinamide]
0.002 | 0.001 | CN1CCC(Oc2cc3nc(C4CCOCC4)cn3cc2NC(=O)c2cccc(C(F)F)n2)C1=O (stereo not shown) [Example 181, 6-(difluoromethyl)-N-(7-((1-methyl-2-oxopyrrolidin-3-yl)oxy)-2-(tetrahydro-2H-pyran-4-yl)imidazo[1,2-a]pyridin-6-yl)picolinamide]
0.004 | 0.001 | O=C(Nc1cn2cc(C3CCOCC3)nc2cc1OC1COC1)c1cccc(C(F)F)n1 [Example 182, 6-(difluoromethyl)-N-(7-(oxetan-3-yloxy)-2-(tetrahydro-2H-pyran-4-yl)imidazo[1,2-a]pyridin-6-yl)picolinamide]
0.002 | 0.001 | CC1(C)CC(Oc2cc3nc(C4CCOCC4)cn3cc2NC(=O)c2cccc(C(F)F)n2)CO1 (stereo not shown) [Example 184, 6-(difluoromethyl)-N-(7-((5,5-dimethyltetrahydrofuran-3-yl)oxy)-2-(tetrahydro-2H-pyran-4-yl)imidazo[1,2-a]pyridin-6-yl)picolinamide]
0.002 | 0.001 | O=C(Nc1cn2cc(C3CCOCC3)nc2cc1OC1CCOCC1)c1cccc(C(F)F)n1 [Example 185, 6-(difluoromethyl)-N-(2-(tetrahydro-2H-pyran-4-yl)-7-((tetrahydro-2H-pyran-4-yl)oxy)imidazo[1,2-a]pyridin-6-yl)picolinamide]
0.004 | 0.002 | CCOc1cc2nc(C3CCOCC3)cn2cc1NC(=O)c1csc(CC)n1 [Example 202, N-(7-ethoxy-2-(tetrahydro-2H-pyran-4-yl)imidazo[1,2-a]pyridin-6-yl)-2-ethylthiazole-4-carboxamide]
0.001 | 0.001 | CCOc1cc2nc(C3CCOCC3)cn2cc1NC(=O)c1csc(C2CC2)n1 [Example 203, 2-cyclopropyl-N-(7-ethoxy-2-(tetrahydro-2H-pyran-4-yl)imidazo[1,2-a]pyridin-6-yl)thiazole-4-carboxamide]
0.021 | 0.004 | CCOc1cc2nc(C3CCOCC3)cn2cc1NC(=O)c1ccn(C)n1 [Example 204, N-(7-ethoxy-2-(tetrahydro-2H-pyran-4-yl)imidazo[1,2-a]pyridin-6-yl)-1-methyl-1H-pyrazole-3-carboxamide]
0.012 | 0.003 | CCOc1cc2nc(C3CCOCC3)cn2cc1NC(=O)c1ccn(CC)n1 [Example 205, N-(7-ethoxy-2-(tetrahydro-2H-pyran-4-yl)imidazo[1,2-a]pyridin-6-yl)-1-ethyl-1H-pyrazole-3-carboxamide]
0.019 | 0.005 | CCOc1cc2nc(C3CCOCC3)cn2cc1NC(=O)c1ccn(C(C)C)n1 [Example 206, N-(7-ethoxy-2-(tetrahydro-2H-pyran-4-yl)imidazo[1,2-a]pyridin-6-yl)-1-isopropyl-1H-pyrazole-3-carboxamide]
0.008 | 0.002 | CCOc1cc2nc(C3CCOCC3)cn2cc1NC(=O)c1ccn(C2CCCC2)n1 [Example 208, 1-cyclopentyl-N-(7-ethoxy-2-(tetrahydro-2H-pyran-4-yl)imidazo[1,2-a]pyridin-6-yl)-1H-pyrazole-3-carboxamide]
0.009 | 0.005 | CCOc1cc2nc(C3CCOCC3)cn2cc1NC(=O)c1ccn(C2CC2(F)F)n1 (stereo not shown) [Example 209, 1-(2,2-difluorocyclopropyl)-N-(7-ethoxy-2-(tetrahydro-2H-pyran-4-yl)imidazo[1,2-a]pyridin-6-yl)-1H-pyrazole-3-carboxamide]
0.038 | 0.015 | CCOc1cc2nc(C3CCOCC3)cn2cc1NC(=O)c1cc(F)n(C)n1 [Example 210, N-(7-ethoxy-2-(tetrahydro-2H-pyran-4-yl)imidazo[1,2-a]pyridin-6-yl)-5-fluoro-1-methyl-1H-pyrazole-3-carboxamide]
0.022 | 0.007 | CCOc1cc2nc(C3CCOCC3)cn2cc1NC(=O)c1scc(C)c1OC [Example 211, N-(7-ethoxy-2-(tetrahydro-2H-pyran-4-yl)imidazo[1,2-a]pyridin-6-yl)-3-methoxy-4-methylthiophene-2-carboxamide]
0.019 | 0.005 | CCOc1cc2nc(C3CCOCC3)cn2cc1NC(=O)c1ccccc1OC [Example 213, N-(7-ethoxy-2-(tetrahydro-2H-pyran-4-yl)imidazo[1,2-a]pyridin-6-yl)-2-methoxybenzamide]
0.007 | 0.003 | CCOc1cc2nc(C3CCOCC3)cn2cc1NC(=O)c1cccc(C)c1F [Example 214, N-(7-ethoxy-2-(tetrahydro-2H-pyran-4-yl)imidazo[1,2-a]pyridin-6-yl)-2-fluoro-3-methylbenzamide]
0.037 | 0.008 | CCOc1cc2nc(C3CCOCC3)cn2cc1NC(=O)c1cccc(OC)c1F [Example 215, N-(7-ethoxy-2-(tetrahydro-2H-pyran-4-yl)imidazo[1,2-a]pyridin-6-yl)-2-fluoro-3-methoxybenzamide]
0.023 | 0.007 | CCOc1cc2nc(C3CCOCC3)cn2cc1NC(=O)c1ccccn1 [Example 216, N-(7-ethoxy-2-(tetrahydro-2H-pyran-4-yl)imidazo[1,2-a]pyridin-6-yl)picolinamide]
0.002 | 0.001 | CCOc1cc2nc(C3CCOCC3)cn2cc1NC(=O)c1cccc(C(C)C)n1 [Example 218, N-(7-ethoxy-2-(tetrahydro-2H-pyran-4-yl)imidazo[1,2-a]pyridin-6-yl)-6-isopropylpicolinamide]
0.055 | 0.007 | CCOc1cc2nc(C3CCOCC3)cn2cc1NC(=O)c1ccc(F)cn1 [Example 219, N-(7-ethoxy-2-(tetrahydro-2H-pyran-4-yl)imidazo[1,2-a]pyridin-6-yl)-5-fluoropicolinamide]
0.02 | 0.004 | CCOc1cc2nc(C3CCOCC3)cn2cc1NC(=O)c1cccc(OC(C)C)n1 [Example 220, N-(7-ethoxy-2-(tetrahydro-2H-pyran-4-yl)imidazo[1,2-a]pyridin-6-yl)-6-isopropoxypicolinamide]
0.011 | 0.001 | CCOc1cc2nc(C3CCOCC3)cn2cc1NC(=O)c1scc2c1OCCO2 [Example 221, N-(7-ethoxy-2-(tetrahydro-2H-pyran-4-yl)imidazo[1,2-a]pyridin-6-yl)-2,3-dihydrothieno[3,4-b][1,4]dioxine-5-carboxamide]
0.041 | 0.01 | CCOc1cc2nc(C3CCOCC3)cn2cc1NC(=O)c1ccn2c1CCCC2 [Example 222, N-(7-ethoxy-2-(tetrahydro-2H-pyran-4-yl)imidazo[1,2-a]pyridin-6-yl)-5,6,7,8-tetrahydroindolizine-1-carboxamide]
